Data set [1] concerns the target T1, C-X-C chemokine receptor type 2 (Homo sapiens, UniProt P25025).
T1 sequence (P25025 whole entry): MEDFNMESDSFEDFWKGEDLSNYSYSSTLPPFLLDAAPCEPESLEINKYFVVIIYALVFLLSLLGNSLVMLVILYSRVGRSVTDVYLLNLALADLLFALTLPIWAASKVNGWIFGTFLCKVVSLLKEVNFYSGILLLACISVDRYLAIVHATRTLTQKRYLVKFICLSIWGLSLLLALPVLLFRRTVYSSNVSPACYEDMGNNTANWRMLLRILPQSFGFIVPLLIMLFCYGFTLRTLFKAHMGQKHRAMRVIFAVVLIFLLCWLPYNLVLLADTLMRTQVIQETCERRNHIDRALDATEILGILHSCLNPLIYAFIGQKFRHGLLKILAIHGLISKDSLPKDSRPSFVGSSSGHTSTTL
The data set is described as follows: Antagonist activity against human recombinant CXCR2 receptor expressed in CHO cell membranes by SPA based [35S]GTPgammaS binding assay. It counts as functional.

The target in data set [2] is T2, C-X-C chemokine receptor type 2 (Homo sapiens) (UniProt P25025).
T2 sequence (whole entry): T1 sequence (P25025 whole entry)
Description: Antagonist activity against human recombinant CXCR2 receptor expressed in CHO cell membranes at 10 uM by SPA based [35S]GTPgammaS binding assay. It counts as functional. (GTPγS is a poorly hydrolysed GTP analogue; its binding reports G protein activation.)

Data set [3] in a line: Volume of distribution at steady state in iv dosed rat. It counts as ADME, organism-based. The conditions noted are these: in vivo, read-out: Vdss.
A short description of data set [4]: Clearance in iv dosed rat. It counts as ADME, organism-based. The conditions noted are these: in vivo.
Data set [5] is described as follows: Half life in iv dosed rat. It counts as ADME, organism-based. The following applies: in vivo.
Data set [6] in a line: Protein binding in rat plasma. It counts as ADME, cell-free. The conditions noted are these: read-out: PPB.
A short description of data set [7]: Oral bioavailability in rat. It counts as ADME, organism-based. The conditions noted are these: in vivo.
A short description of data set [8]: Dissociation constant, pKa of the compound. It counts as physicochemical.
The target in data set [9] is T1, C-X-C chemokine receptor type 2. Description: Displacement of [125I]-GRO-alpha from human recombinant CXCR2 receptor expressed in CHO cell membranes. In general terms: In a radioligand displacement assay an active substance lowers the binding of a labelled ligand.
Data set [10] in a line: Equilibrium solubility at pH 6.8. The following applies: buffer. It counts as physicochemical.

Converted amounts (≈) assume the structure as drawn.

On to `CC(C)(CO)Nc1nc(SCc2cccc(F)c2F)nc(-c2ccccc2)c1C#N`, for which the IC50 (commonly the concentration needed to halve the response being measured) in [1] was greater than 30000 nM.
Consider `CCOC(=O)[C@H]1C[C@@H]1c1nc(SCc2cccc(F)c2F)nc(O)c1C#N` (stereo in doubt; form 2), for which, in data set [1], the IC50 was found to be 1300 nM.
For `Oc1nc(SCc2cccc(F)c2F)nc(C2CC2)c1I`, the IC50 in [1] is 3200 nM.
On the same count and under the same terms, then `N#Cc1c(O)nc(CSc2ccccc2)nc1C1CC1`, with greater than 30000 nM.
The same measure, in the same setting: then `N#Cc1c(O)nc(SCc2cccc(F)c2F)nc1[C@H]1C[C@@H]1CO`, with 6 nM; and `CCOC(=O)[C@H]1C[C@@H]1c1nc(SCc2cccc(F)c2F)nc(O)c1C#N` (stereo in doubt; form 1), with 320 nM.
As for `N#Cc1c(O)nc(SCc2cccc(F)c2F)nc1-c1ccc(Cl)cc1`, the IC50 in data set [1] was 7400 nM. The inhibition (in general, the share of the control response that was lost under treatment) in data set [2] was greater than 50%.
In the case of `CS(=O)(=O)Nc1nc(SCc2cccc(F)c2F)nc(-c2ccccc2)c1C#N`, the IC50 in data set [1] is greater than 30000 nM.
On to `N#Cc1c(O)nc(SCc2cccc(F)c2F)nc1C1CCC1`, for which the IC50 in [1] turned out to be 1700 nM. For the same molecule, the inhibition in data set [2] is greater than 50%.
As for `CCOC(=O)[C@H]1C[C@@H]1c1nc(SCc2cccc(F)c2F)nc(O)c1C#N` (racemic), in data set [1], the IC50 turned out to be 1500 nM.
Regarding `N#Cc1c(O)nc(SCc2cccc(F)c2F)nc1C1CCCC1`, the concentration for half-maximal inhibition (IC50) in [1] amounted to 4900 nM. Besides, in data set [2], the inhibition is greater than 50%.
Taken in the same sequence, the figures for `Cc1cccc(-c2nc(SCc3cccc(F)c3F)nc(O)c2C#N)c1` were 4700 nM and greater than 50%.
For `CC(Sc1nc(O)c(C#N)c(C2CC2)n1)c1ccccc1` (stereo not drawn), in data set [1], the IC50 was 4800 nM.
Turning to `CC(C)(C)c1nc(SCc2cccc(F)c2F)nc(O)c1C#N`, the IC50 in [1] came out at 3700 nM. Also, the inhibition in data set [2] was greater than 50%.
Turning to `COc1ccc(-c2nc(SCc3cccc(F)c3F)nc(O)c2C#N)cc1C`, in data set [1], the IC50 was determined as 4600 nM. The inhibition in data set [2] was greater than 50%.
Taken in the same sequence, the figures for `N#Cc1c(O)nc(SCc2cccc(F)c2F)nc1-c1ccc(O)cc1` were 780 nM and greater than 50%.
Consider `CC(C)(Sc1nc(O)c(C#N)c(C2CC2)n1)c1ccccc1`, for which the IC50 in [1] is 6400 nM.
Take `N#Cc1c(O)nc(SCc2ccccc2)nc1C1CC1`: the IC50 in data set [1] worked out at 510 nM.
`Cc1ccc(-c2nc(SCc3cccc(F)c3F)nc(O)c2C#N)cc1`: in [1], the IC50 came out at 1400 nM. Besides, the inhibition in data set [2] is greater than 50%.
As for `Cc1nc(SCc2cccc(F)c2F)nc(O)c1C#N`, the IC50 in data set [1] is 4300 nM. For the same molecule, in data set [2], the inhibition was greater than 50%.
The corresponding values for `CC(C)Oc1ccc(-c2nc(SCc3cccc(F)c3F)nc(O)c2C#N)cc1` are 1600 nM and greater than 50%.
Taken in the same sequence, the figures for `COc1ccc(-c2nc(SCc3cccc(F)c3F)nc(O)c2C#N)cc1` were 710 nM and greater than 50%.
For `N#Cc1c(O)nc(SCc2cccc(F)c2F)nc1[C@H]1C[C@@H]1C(=O)O`, the IC50 in data set [1] is 10 nM.
Still for that read-out and setting: then `N#Cc1c(O)nc(CSc2cccc(F)c2F)nc1C1CC1`, with 10000 nM; and `Oc1cc(C2CC2)nc(SCc2cccc(F)c2F)n1`, with 320 nM.
`CC(C)c1nc(SCc2cccc(F)c2F)nc(O)c1C#N`: the 50% inhibitory concentration (IC50) in data set [1] turned out to be 900 nM. Also, the inhibition in data set [2] was greater than 50%.
Turning to `N#Cc1c(O)nc(SCc2cccc(F)c2F)nc1C1CC1`, the Vd in data set [3] amounted to 0.2 L/kg. Moreover, the clearance (usually the rate of elimination divided by the concentration) in data set [4] was determined as 1.6 mL/min/kg. In addition, the half-life (as a rule, how long it takes for the measured level to halve) in data set [5] was 360 min. In addition, in data set [6], the fraction unbound is less than 0.01. Moreover, the 50% inhibitory concentration (IC50) is 140 nM in data set [1] and 40 nM in [9]. For the same molecule, in [7], the bioavailability (as a rule, dose-corrected exposure relative to a reference, in per cent) was greater than 100%. In addition, in [8], the pKa (in general, the negative logarithm of the acid dissociation constant) was 8.9. The inhibition in data set [2] was greater than 50%. For the same molecule, the thermodynamic solubility (as a rule, solubility found after equilibrating the solid with the medium) in data set [10] was determined as 10 µg/mL (≈ 31.3 µM).
`N#Cc1c(O)nc(SCc2cccc(F)c2F)nc1-c1ccccc1`: the IC50 in data set [1] stood at 3700 nM.
With `Oc1nc(SCc2cccc(F)c2F)nc(C2CC2)c1Br`, in data set [1], the IC50 was determined as 1400 nM.
As to `N#Cc1c(O)nc(SCc2c(Cl)cccc2Cl)nc1-c1ccccc1`, the 50% inhibitory concentration (IC50) in [1] is greater than 30000 nM; in [9] it was 4300 nM.
For the molecule `N#Cc1c(O)nc(SCc2cccc(F)c2F)nc1[C@H]1C[C@@H]1C(N)=O`, the IC50 in data set [1] came out at 7 nM.

For the origin of these results see ChEMBL document CHEMBL3351490, “The discovery of potent, orally bioavailable pyrimidine-5-carbonitrile-6-alkyl CXCR2 receptor antagonists” (Bioorg Med Chem Lett, 2014).
